From ChEMBL document CHEMBL5252675, “Discovery of new 5-substituted-indole-2-carboxamides as dual epidermal growth factor receptor (EGFR)/cyclin dependent kinase-2 (CDK2) inhibitors with potent antiproliferative action” (RSC Med Chem, 2023)

Assays:
[1] = target: Cyclin-dependent kinase 2 (Homo sapiens, UniProt P24941)
Description: Inhibition of CDK2 (unknown origin)

MCF-10A = assay: Cytotoxicity against human MCF-10A cells assessed as reduction in cell viability at 50 uM incubated for 4 days by MTT assay; type: toxicity, cell-based; details: 96 h, time 4 day
MCF7 = assay: Antiproliferative activity against human MCF7 cells by MTT assay; type: functional, cell-based
PANC-1 = assay: Antiproliferative activity against human PANC-1 cells by MTT assay; type: functional, cell-based
A549 = assay: Antiproliferative activity against human A549 cells by MTT assay; type: functional, cell-based
[2] = target: Epidermal growth factor receptor (Homo sapiens, UniProt P00533); assay: Inhibition of EGFR (unknown origin)
Chain of Epidermal growth factor receptor (P00533 whole entry): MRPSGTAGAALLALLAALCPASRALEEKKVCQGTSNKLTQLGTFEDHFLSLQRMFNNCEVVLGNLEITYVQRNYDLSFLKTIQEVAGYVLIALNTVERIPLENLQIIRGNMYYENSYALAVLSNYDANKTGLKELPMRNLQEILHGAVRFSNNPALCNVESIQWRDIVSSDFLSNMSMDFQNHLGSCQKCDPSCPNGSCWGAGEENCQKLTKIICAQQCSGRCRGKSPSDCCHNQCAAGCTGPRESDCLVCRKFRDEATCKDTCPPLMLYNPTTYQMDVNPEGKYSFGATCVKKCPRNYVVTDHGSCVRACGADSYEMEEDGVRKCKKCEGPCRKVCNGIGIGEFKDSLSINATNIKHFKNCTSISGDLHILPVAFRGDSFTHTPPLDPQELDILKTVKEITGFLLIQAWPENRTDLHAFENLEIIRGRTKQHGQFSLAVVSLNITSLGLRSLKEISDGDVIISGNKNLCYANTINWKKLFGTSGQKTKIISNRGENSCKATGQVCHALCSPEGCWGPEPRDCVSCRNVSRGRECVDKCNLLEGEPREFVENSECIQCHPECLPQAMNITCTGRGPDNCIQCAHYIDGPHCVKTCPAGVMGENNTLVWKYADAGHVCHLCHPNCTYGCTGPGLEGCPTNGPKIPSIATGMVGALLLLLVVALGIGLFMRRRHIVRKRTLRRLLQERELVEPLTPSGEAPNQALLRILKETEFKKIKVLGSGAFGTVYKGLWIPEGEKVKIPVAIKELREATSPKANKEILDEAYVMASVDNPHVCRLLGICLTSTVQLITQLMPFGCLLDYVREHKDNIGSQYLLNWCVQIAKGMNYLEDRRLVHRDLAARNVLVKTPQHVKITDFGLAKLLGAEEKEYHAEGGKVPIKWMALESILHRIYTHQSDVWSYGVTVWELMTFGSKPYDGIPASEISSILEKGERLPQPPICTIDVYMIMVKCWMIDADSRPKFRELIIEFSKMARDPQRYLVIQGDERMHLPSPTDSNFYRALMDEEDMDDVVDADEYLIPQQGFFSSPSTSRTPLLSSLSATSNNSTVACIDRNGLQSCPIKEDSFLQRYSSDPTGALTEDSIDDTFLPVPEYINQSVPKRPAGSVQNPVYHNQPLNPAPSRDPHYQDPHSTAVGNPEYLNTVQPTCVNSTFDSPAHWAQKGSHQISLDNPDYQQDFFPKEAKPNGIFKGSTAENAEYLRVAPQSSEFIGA

HT-29 = assay: Antiproliferative activity against human HT-29 cells by MTT assay; type: functional, cell-based

Row | SMILES | IC50 [1] | Activity (MCF-10A) | IC50 (MCF7) | IC50 (PANC-1) | IC50 (A549) | IC50 [2] | IC50 (HT-29)
1 | CCc1c(C(=O)NCCc2ccc(N3CCOCC3)cc2)[nH]c2ccc(C)cc12 | 16 nM | 89% | 42 nM | 35 nM | 34 nM | 85 nM | 37 nM
2 | CCc1c(C(=O)NCCc2ccccc2)[nH]c2ccc(C)cc12 | 46 nM | 87% | 69 nM | 72 nM | 64 nM | 134 nM | 75 nM
3 | CCc1c(C(=O)N2CCN(c3ccccc3)CC2)[nH]c2ccc(C)cc12 | – | 90% | 132 nM | 137 nM | 125 nM | – | 140 nM
4 | CCc1c(C(=O)NCCc2ccc(N3CCCC3C)cc2)[nH]c2ccc(Br)cc12 (stereo not given) | – | 86% | 185 nM | 190 nM | 172 nM | – | 197 nM
5 | CCc1c(C(=O)N2CCN(c3ccccc3)CC2)[nH]c2ccc(C(F)(F)F)cc12 | – | 91% | 123 nM | 130 nM | 117 nM | – | 130 nM
6 | CCc1c(C(=O)N2CCN(c3ccccc3)CC2)[nH]c2ccc(Br)cc12 | – | 85% | 190 nM | 195 nM | 185 nM | – | 202 nM
7 | CCc1c(C(=O)NCCc2ccc(N(C)C)cc2)[nH]c2ccc(Br)cc12 | – | 91% | 112 nM | 115 nM | 108 nM | – | 120 nM
8 | CCc1c(C(=O)NCCc2ccc(N3CCCCC3)cc2)[nH]c2ccc(Br)cc12 | – | 90% | 93 nM | 97 nM | 89 nM | – | 97 nM
9 | CCc1c(C(=O)NCCc2ccccc2)[nH]c2ccc(Br)cc12 | – | 89% | 142 nM | 145 nM | 138 nM | – | 148 nM
10 | CCc1c(C(=O)NCCc2ccc(N3CCOCC3)cc2)[nH]c2ccc(Br)cc12 | – | 91% | 74 nM | 75 nM | 67 nM | – | 79 nM
11 | CCc1c(C(=O)NCCc2ccc(N3CCCCC3)cc2)[nH]c2ccc(C(F)(F)F)cc12 | – | 85% | 82 nM | 85 nM | 77 nM | – | 87 nM
12 | CCc1c(C(=O)NCCc2ccc(N3CCCCC3)cc2)[nH]c2ccc(C)cc12 | 33 nM | 89% | 54 nM | 59 nM | 51 nM | 117 nM | 57 nM
13 | CCc1c(C(=O)NCCc2ccccc2)[nH]c2ccc(C(F)(F)F)cc12 | – | 88% | 162 nM | 165 nM | 157 nM | – | 170 nM
14 | Cc1c(C(=O)NCCc2ccc(F)cc2)[nH]c2cc(F)ccc12 | 34 nM | – | – | – | – | 98 nM | –
15 | CCc1c(C(=O)NCCc2ccc(N3CCOCC3)cc2)[nH]c2ccc(C(F)(F)F)cc12 | 24 nM | 87% | 45 nM | 52 nM | 43 nM | 94 nM | 55 nM
